Experimental data taken from US6455576B1, “Macrolides with anti-inflammatory activity” (Zambon Group S.p.A., priority 1999, dated 2002).
Where two headings read alike, the source gives them in different places.

Experiments:
superoxide anion release = assay: In vitro inhibition of FMLP-stimulated superoxide anion release from neutrophils (Lucigenin-enhanced chemiluminescence); assay type: cell-based, human; details: neutrophils of healthy volunteers, 30 minutes pre-incubation at 37° C., FLMP stimulation, read-out: O2 release IC50
Procedure: B) Release of Superoxide Anions
Neutrophils were separated from venous blood of healthy volunteers by centrifugation on Ficoll-Hypaque, followed by sedimentation on 6% dextrane and osmotic lysis of erythrocytes. Neutrophils were then washed and resuspended in a medium made of RPMI-1640 supplemented with 5% foetal calf serum and 1.34 mmoles/l of disodium dihydrate EDTA. The cells were maintained for 24 hours at 4° C. and before the test the suspension was centrifugated and resuspended in HBSS (Hanks' balanced salt solution). The vitality and the purity of the neutrophil preparation was verified by dyeing with Trypan blue and Turk blue.
The superoxide anions were measured by using Lucigenin (bis-N-methylacridinium nitrate)-enhanced chemiluminescence technique.
Neutrophils (2×10^6 cells/ml) were pre-incubated for 30 minutes at 37° C. in 900 µl of HBSS with and without the tested compound (reading system).
The production of superoxide anions was measured with a Lumac/3M bio-counter after addition of 100 µl of a solution in HBSS of Lucigenin (2 mmoles/l) and N-formyl-L-methionyl-L-leucyl-L-phenylalanine (FLMP) as stimulating agent at the concentration of […] to the reading system. FLMP was dissolved in DMSO (1×10^−2 M) and further diluted in HBSS. The compound to be tested was dissolved in DMSO at the concentration of 10^−2 M. Lower concentrations, in DMSO, were prepared from that solution, and tested. The DMSO amount present in the reading system was lower than 1%.
The luminosity values obtained at the peak, for each tested concentration of the compound, were transformed in inhibition percentage in comparison with the reference.
The concentration able to inhibit the production of superoxide anion at 50% (IC50) was calculated from the obtained “dose-response” curve.

[1] = system: neutrophilia induced by LPS; assay: In vivo inhibition of neutrophilia induced by LPS after repeated administrations (bronchoalveolar lavage); design: species or system rat; details: Sprague-Dawley rats, compound i.p. twice a day for 6 days and 7th day 1 hour before and 5 hours after LPS 6 mg/kg i.p.; BALF 24 hours after LPS
Procedure: In vivo Pharmacological Activity
Male Sprague-Dawley rats weighing between 200 and 300 g were used.
The rats used in the experiments were not evidently infected. The animals were maintained in standard conditions for 7 days before being sacrificed.
LPS (E. coli lipopolisaccharide) (endotoxin; 055:B5 serum-type; Sigma Chemical Co., St. Louis, Mo.) was dissolved in saline sterile solution and was administered by intraperitoneal injection (i.p.) at a dose of 6 mg/kg (1 ml/kg). Analogously the saline solution and/or the carrier (saline solution+0.5% Tween 20) were injected into the control animals.
Compound Administration (Prophylactic Treatment)
Each compound was administered by i.p. injection twice a day for 6 days, the 7th day 1 hour before and 5 hours after LPS administration. The compounds were suspended with 0.5% Tween 20 in the saline solution.
After 24 hours from the LPS injection rats were sacrificed with an overdose of nembutal (100 mg/kg i.p.). The trachea was incannulated and the lung was washed by instilling two 5 ml aliquots of PBS (phosphate buffer saline) at 37° C. and the fluid was immediately removed. The fluid was again injected and the procedure was altogether repeated three times for each aliquot.
Cell Counting and Differentiation
200 μl of BALF (bronchoalveolar lavage fluid) were diluted in 1 ml of cold water and 19 ml of Isoton. The overall number of cells was counted twice by using Contraves autolyser 800. When the total number was lower than 2000, BALFs were centrifugated at 800 rpm for 10 minutes in order to separate the cells from the supernatant. The supernatants were discharged and the cells resuspended in a small amount of PBS. For the cytological evaluation, 50 μl of the solution with the resuspended cells were centrifugated for 1 minute at 1300 rpm by using a Shandon Cytospin centrifuge. The slides were fixed in acetone and dyed with DiffQuick. The differential counts of cells were performed on each slide by counting 200 cells at random; cellular types were classified as neutrophils, eosinophils and mononuclear cells according to morphological standard criteria.

IL-8 release = assay: In vitro inhibition of LPS-induced IL-8 release in ECV304 endothelial cells (ELISA); assay type: cell-based, human; details: for IC50: 1 hour pre-incubation, supernatant after one night, concentration giving 50% of highest obtainable inhibition, read-out: IL-8 release potency IC50; for IL-8 release efficacy (%): highest obtainable inhibition
Procedure: A) Release of Interleukin 8 (IL-8)
A human endothelial immortalized cell line (ECV304) was obtained from ATTC (Rockville, Md.) and grown in Medium 199, mod. Earle's salts (GIBCO, Life Technologies, Grand Island, N.Y.), supplemented with 20% Fetal Calf Serum (GIBCO), 100 U/ml of penicillin and 100 µg/ml of streptomycin (SIGMA, St. Louis, Mo.) in wet atmosphere with 5% CO2 at 37° C.
The cells were cultivated on 96 well plates up to obtain a confluent monolayer. The compounds to be evaluated were dissolved in DMSO at 10^−2M and diluted with culture medium.
The compounds were pre-incubated with the cells 1 hour before the challenge.
The release of IL-8 was induced by adding 0.66 µg/ml of lipopolysaccharide B (E. coli 055:B5, Difco, Detroit, Mich.) in a final volume of 200 µl.
After one night, the supernatant was collected for the IL-8 test.
The specific immunoreactivity for IL-8 in the culture supernatant was measured with ELISA kit (Amersham, UK).
Results were expressed as the highest obtainable inhibition (efficacy) and, whether possible, as the concentration at which 50% of such effect (TC50) is obtained.

[2] = Homo sapiens, ECV-304, LPS 0.66 μg/ml

IC50 (IL-8 release; LPS 0.66 μg/ml) [µM] | IC50 (IL-8 release; [2]) [µM] | Compound | IC50 (superoxide anion release) [µM] | Inhibition (%) [1] [%] | IL-8 release efficacy (%) (IL-8 release; LPS 0.66 μg/ml) | IC50 (superoxide anion release; Homo sapiens, Neutrophil) [µM]
7.7 ± 0.3 | – | 3′-de(dimethylamino)-erythromycin A (E)-9-[O-[2-[(6-amino-hexyl)-amino]-ethyl]-oxime] [Compound 6] | 9.9 ± 0.69 | −11 | 37 ± 10 | –
– | – | 3′-de(dimethylamino)erythromycin A (E)-9-[O-[2-[6-(benzylamino)-hexylamino]-ethyl]-oxime] [Compound 9] | 3.5 ± 0.5 | −96 | – | –
– | 5.5 ± 1.5 | CC[C@H]1OC(=O)[C@H](C)[C@@H](O[C@H]2C[C@@](C)(OC)[C@@H](O)[C@H](C)O2)[C@H](C)[C@@H](O[C@@H]2O[C@H](C)C[C@H](N(C)C)[C@H]2O)[C@](C)(O)C[C@@H](C)/C(=N\OCOCCOC)[C@H](C)[C@@H](O)[C@]1(C)O [roxithromycin, reference compound] | – | −50 | 43 ± 6 | 89 ± 5
– | – | CC[C@H]1OC(=O)[C@H](C)[C@@H](O[C@H]2C[C@@](C)(OC)[C@@H](O)[C@H](C)O2)[C@H](C)[C@@H](O[C@@H]2O[C@H](C)CC[C@H]2O)[C@](C)(O)C[C@@H](C)C(=NO)[C@H](C)[C@@H](O)[C@]1(C)O [Compound 2, 3′-de(dimethylamino)-erythromycin A Oxime] | 11.4 ± 2.9 | −31 | 29 | –
– | – | CCC1OC(=O)C(C)C(OC2CC(C)(OC)C(O)C(C)O2)C(C)C(OC2OC(C)CCC2O)C(C)(O)CC(C)C(=NOCCNCCNCc2nccs2)C(C)C(O)C1(C)O (stereo not shown) [Compound 16, 3′-de(dimethylamino)-erythromycin A (E)-9-[O-[2-[2-[(thiazol-2-ylmethyl)-amino]-ethyl-amino]-ethyl]-oxime]] | 14.3 | – | 35 | –
– | – | 3′-de(dimethylamino)-erythromycin A (E)-9-[O-[2-[6-[(thiazol-2-ylmethyl)-amino]-hexyl-amino]-ethyl]-oxime] [Compound 8] | 3.5 ± 0.2 | – | 19 ± 1 | –
12 | – | 3′-de(dimethylamino)-erythromycin A (E)-9-O-[2-methoxy-ethoxy]-methyl]-oxime] [Compound 5] | > 100 | – | 55 ± 0.9 | –
– | – | CCC1OC(=O)C(C)C(OC2CC(C)(OC)C(O)C(C)O2)C(C)C(OC2OC(C)CCC2O)C(C)(O)CC(C)C(=NOCCOCCNCc2ccccc2)C(C)C(O)C1(C)O (stereo not shown) [Compound 11, 3′-de(dimethylamino)-erythromycin A (E)-9-[O-[2-[2-(benzylaminol)-ethoxy]-ethyl]-oxime]] | 5 | – | 22 ± 4 | –
– | – | CC[C@H]1OC(=O)[C@H](C)[C@@H](O[C@H]2C[C@@](C)(OC)[C@@H](O)[C@H](C)O2)[C@H](C)[C@@H](O[C@@H]2O[C@H](C)C[C@H](N(C)C)[C@H]2O)[C@](C)(O)C[C@@H](C)C(=O)[C@H](C)[C@@H](O)[C@]1(C)O [erythromycin, reference compound] | – | −46 | 27 ± 1 | > 100
– | 8.9 ± 3.2 | CC[C@H]1OC(=O)[C@H](C)[C@@H](O[C@H]2C[C@@](C)(OC)[C@@H](O)[C@H](C)O2)[C@H](C)[C@@H](O[C@@H]2O[C@H](C)C[C@H](N(C)C)[C@H]2O)[C@](C)(OC)C[C@@H](C)C(=O)[C@H](C)[C@@H](O)[C@]1(C)O [clarithromycin, reference compound] | – | −47 | 48 ± 6 | 49.2 ± 1.9
– | – | CCC1OC(=O)C(C)C(OC2CC(C)(OC)C(O)C(C)O2)C(C)C(OC2OC(C)C=CC2O)C(C)(O)CC(C)C(=NO)C(C)C(O)C1(C)O (stereo not shown) [Compound 1, 3′-de(dimethylamino)-3′,4′-dehydro-erythromycin A Oxime] | 35.3 ± 5.4 | – | 29 | –
